Measurements taken from patent US9326513B2, “Fungicidal compositions” (Syngenta Participations AG, priority 2011, dated 2016).

Key:
Format in all cases: in vivo
Settings in all cases: foliar, compared to untreated control leaf disks, read-out: disease control
[1] = test system: Puccinia recondita f. sp. tritici; experiment: Puccinia recondita f. sp. tritici / wheat / leaf disc curative (brown rust)
Description: Puccinia recondita f. sp. tritici/Wheat/Leaf Disc Curative (Brown Rust) Wheat leaf segments cv. Kanzler are placed on agar in multiwell plates (24-well format). The leaf segments are inoculated with a spore suspension of the fungus. Plates were stored in darkness at 19° C. and 75% rh. The formulated test compound diluted in water was applied 1 day after inoculation.

Pyrenophora teres = Pyrenophora teres / barley / leaf disc preventative (net blotch)
Excerpt: Pyrenophora teres/Barley/Leaf Disc Preventative (Net Blotch) Barley leaf segments cv. Hasso were placed on agar in a multiwell plate (24-well format) and sprayed with the formulated test compound diluted in water. The leaf segments were inoculated with a spore suspension of the fungus 2 days after application.

[2] = test system: Blumeria graminis f. sp. tritici (Erysiphe graminis f. sp. tritici); experiment: Blumeria graminis f. sp. tritici / wheat / leaf disc preventative (powdery mildew on wheat)
Outline: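 Wheat leaf segments (cv. Kanzler) on agar were sprayed with formulated compound in water, inoculated with powdery mildew 1 day later, and kept at 20° C, 60% rh (24 h dark, then 12 h light/12 h dark). Percent disease control versus untreated scored 6-8 days after application; tested at 200 ppm.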

[3] = test system: Puccinia recondita f. sp. tritici; experiment: Puccinia recondita f. sp. tritici / wheat / leaf disc preventative (brown rust)
Excerpt: Puccinia recondita f. sp. tritici/Wheat/Leaf Disc Preventative (Brown Rust) Wheat leaf segments cv. Kanzler were placed on agar in multiwell plates (24-well format) and sprayed with the formulated test compound diluted in water. The leaf disks were inoculated with a spore suspension of the fungus 1 day after application.

Measured: pest or weed control at 200 ppm

CCN(C)/C=N/c1cc(Br)c(OCc2cccc(F)c2)nc1C [Q.176]
≥ 50%: all assays above

CCN(C)/C=N/c1cc(I)c(OC(C)c2cc(F)cc(F)c2)nc1C (centres unmarked) [Q.178]
≥ 50%: all assays above

CCN(C)/C=N/c1cc(I)c(O[C@H]2CC[C@@H](C(C)C)CC2)nc1C [Q.180]
≥ 50%: all assays above

CCN(C)/C=N/c1ccc(O[C@H]2CC[C@@H](C(C)C)CC2)nc1C [Q.183]
≥ 50%: all assays above

CCN(C)/C=N/c1cc(C)c(OC(C)c2cc(F)cc(F)c2)nc1C (centres unmarked) [Q.184]
≥ 50%: all assays above

CCN(C)/C=N/c1cc(C)c(O[C@H]2CC[C@@H](C(C)C)CC2)nc1C [Q.186]
≥ 50%: all assays above

CCCN(C)/C=N/c1cc(Br)c(OC(C)c2cc(F)cc(F)c2)nc1C (centres unmarked) [Q.191]
≥ 50%: all assays above

Cc1nc(OC(C)c2cc(F)cc(F)c2)c(Br)cc1/N=C/N1CCCC1 (centres unmarked) [Q.193]
≥ 50%: all assays above

CCN(C)/C=N/c1cc(Br)c(OC2Cc3ccc(Br)cc3C2)nc1C (centres unmarked) [Q.196]
≥ 50%: all assays above

CCN(C)/C=N/c1cc(Br)c(OC2Cc3cc(C)c(C)cc3C2)nc1C [Q.197]
≥ 50%: all assays above

CCN(C)/C=N/c1cc(Br)c(OC(C)Cc2ccccc2)nc1C (centres unmarked) [Q.198]
≥ 50%: all assays above

CCN(C)/C=N/c1cc(Br)c(OC2Cc3ccc(OC)cc3C2)nc1C (centres unmarked) [Q.199]
≥ 50%: all assays above

CCN(C)/C=N/c1cc(Br)c(OC2Cc3cccc(C)c3C2)nc1C (centres unmarked) [Q.200]
≥ 50%: all assays above

CCN(C)/C=N/c1cc(Br)c(OC(C)CCCc2ccccc2)nc1C (centres unmarked) [Q.201]
≥ 50%: all assays above
